{
  "source": "patent US5602101A",
  "about": "“Antithrombotic agents” (priority 1994, dated 1997)",
  "note": "Non-standard residues stand in square brackets, D forms with d. Residues, ends and D or L forms follow the SMILES beside them. dNMeCha = CN[C@H](CC1CCCCC1)C(=O)O",
  "data": [
    {"target": "T1, human thrombin (Homo sapiens, UniProt P00734)", "T1 construct": "purified human thrombin Enzyme Research Laboratories, South Bend, Ind; purchased Enzyme Research Laboratories, South Bend, Ind", "assay": "Inhibition of amidase activity of thrombin (chromogenic substrate), Kass", "format": "biochemical", "details": "substrate N-benzoyl-Phe-Val-Arg-p-nitroanilide, pH 7.4", "summary_of_the_method": "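Human thrombin (8 NIH units/ml solution) with compound in 0.03M Tris, 0.15M NaCl, pH 7.4; chromogenic substrate hydrolysis followed at 405 nm. Free thrombin from standard curves gives bound enzyme and free inhibitor; Kass, an association equilibrium constant in L/mol, averaged over a compound concentration range.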", "units": {"Enzyme Kass, Human Thrombin": "L/mol × 10^6"}, "values": [
      {"smiles": "Cl.N=C(N)NCCC[C@@H](C=O)NC(=O)[C@@H]1CCCN1C(=O)[C@@H](Cc1ccccc1)NCC1CCCCC1", "note": "[Example 30, cyclohexyl-CH2 -D-phe-pro-Arg-H.HCl]", "Enzyme Kass, Human Thrombin": 480},
      {"smiles": "CN[C@H](CC1CCCCC1)C(=O)N1CCC[C@H]1C(=O)N[C@H](C=O)CCCNC(=N)N.Cl", "note": "[Example 31, Me-D-Cha-Pro-Arg-H.HCl] (H-[dNMeCha]-Pro-Arg-aldehyde)", "Enzyme Kass, Human Thrombin": 590},
      {"smiles": "CCOC(=O)N[C@H](Cc1ccccc1)C(=O)N1CCC[C@H]1C(=O)N[C@H](C=O)CCCNC(=N)N.Cl", "note": "[Example 33, EtOCO-D-Phe-Pro-Arg-H.HCl]", "Enzyme Kass, Human Thrombin": 170}
    ]},
    {"test_system": "not given", "assay": "not given", "details": "rat, in vivo", "units": {"Index of Bioavailability, % Relative Activity": "%"}, "values": [
      {"smiles": "CN[C@H](CC1CCCCC1)C(=O)N1CCC[C@H]1C(=O)N[C@H](C=O)CCCNC(=N)N.Cl", "note": "[Example 31, Me-D-Cha-Pro-Arg-H.HCl] (H-[dNMeCha]-Pro-Arg-aldehyde)", "Index of Bioavailability, % Relative Activity": 13}
    ]},
    {"target": "T2, tissue plasminogen activator (t-PA) (Homo sapiens, UniProt P00750)", "T2 construct": "purchased American Diagnostics, Greenwich, Conn", "T2 sequence (P00750 36-562)": "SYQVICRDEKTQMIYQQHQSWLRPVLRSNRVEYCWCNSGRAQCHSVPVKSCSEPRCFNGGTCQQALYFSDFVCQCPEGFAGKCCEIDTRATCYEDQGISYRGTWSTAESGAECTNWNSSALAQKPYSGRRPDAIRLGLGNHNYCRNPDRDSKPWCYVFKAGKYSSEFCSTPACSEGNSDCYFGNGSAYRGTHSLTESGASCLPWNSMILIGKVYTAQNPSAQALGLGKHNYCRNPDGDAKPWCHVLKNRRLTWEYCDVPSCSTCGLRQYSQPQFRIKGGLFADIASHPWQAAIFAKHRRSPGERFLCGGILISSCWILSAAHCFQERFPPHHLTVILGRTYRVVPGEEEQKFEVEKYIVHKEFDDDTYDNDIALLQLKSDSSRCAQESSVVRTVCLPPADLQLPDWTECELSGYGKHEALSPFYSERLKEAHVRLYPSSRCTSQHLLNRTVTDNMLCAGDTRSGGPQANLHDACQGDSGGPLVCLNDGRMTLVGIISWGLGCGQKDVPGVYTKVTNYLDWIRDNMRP", "assay": "Serine protease inhibition, t-PA (chromogenic substrate), Kass", "format": "biochemical", "details": "substrate H-D-Ile-Pro-Arg-p-nitroanilide", "summary_of_the_method": "(§1)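 Enzyme mixed with test compound in 0.03M Tris, 0.15M NaCl, pH 7.4, then p-nitroanilide substrate added (Bz-Ile-Glu-Gly-Arg-pNA for factor Xa; Bz-Phe-Val-Arg-pNA for trypsin; H-D-Ile-Pro-Arg-pNA for t-PA; H-D-Val-Leu-Lys-pNA for plasmin); hydrolysis followed at 405 nm. Free enzyme from standard curves gave bound enzyme and free inhibitor; Kass (L/mol) averaged over several compound concentrations.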", "units": {"Enzyme Kass, t-Pa": "L/mol × 10^6"}, "values": [
      {"smiles": "Cl.N=C(N)NCCC[C@@H](C=O)NC(=O)[C@@H]1CCCN1C(=O)[C@@H](Cc1ccccc1)NCC1CCCCC1", "note": "[Example 30, cyclohexyl-CH2 -D-phe-pro-Arg-H.HCl]", "Enzyme Kass, t-Pa": 0.046},
      {"smiles": "CN[C@H](CC1CCCCC1)C(=O)N1CCC[C@H]1C(=O)N[C@H](C=O)CCCNC(=N)N.Cl", "note": "[Example 31, Me-D-Cha-Pro-Arg-H.HCl] (H-[dNMeCha]-Pro-Arg-aldehyde)", "Enzyme Kass, t-Pa": 0.037},
      {"smiles": "CCOC(=O)N[C@H](Cc1ccccc1)C(=O)N1CCC[C@H]1C(=O)N[C@H](C=O)CCCNC(=N)N.Cl", "note": "[Example 33, EtOCO-D-Phe-Pro-Arg-H.HCl]", "Enzyme Kass, t-Pa": 2.5}
    ]},
    {"test_system": "Human Plasma", "assay": "Anticoagulation in human plasma, prothrombin time (PT)", "format": "biochemical", "details": "concentration required to double the PT", "summary_of_the_method": "(§2)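 Compounds were added to human plasma over a range of concentrations. PT used Thromboplastin-C reagent with saline; APTT used a 120-second Actin preincubation followed by 0.02M CaCl2, and TT used bovine thrombin. Clotting times were read on a CoAScreener, and the concentration doubling clotting time was estimated by linear extrapolation.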", "values": [
      {"smiles": "Cl.N=C(N)NCCC[C@@H](C=O)NC(=O)[C@@H]1CCCN1C(=O)[C@@H](Cc1ccccc1)NCC1CCCCC1", "note": "[Example 30, cyclohexyl-CH2 -D-phe-pro-Arg-H.HCl]", "2 × Clotting time, PT": "1,200 ng/ML"},
      {"smiles": "CN[C@H](CC1CCCCC1)C(=O)N1CCC[C@H]1C(=O)N[C@H](C=O)CCCNC(=N)N.Cl", "note": "[Example 31, Me-D-Cha-Pro-Arg-H.HCl] (H-[dNMeCha]-Pro-Arg-aldehyde)", "2 × Clotting time, PT": "720 ng/mL"},
      {"smiles": "CCOC(=O)N[C@H](Cc1ccccc1)C(=O)N1CCC[C@H]1C(=O)N[C@H](C=O)CCCNC(=N)N.Cl", "note": "[Example 33, EtOCO-D-Phe-Pro-Arg-H.HCl]", "2 × Clotting time, PT": "2,000 ng/ML"}
    ]},
    {"test_system": "Human Plasma", "assay": "Anticoagulation in human plasma, activated partial thromboplastin time (APTT)", "format": "biochemical", "details": "concentration required to double the APTT", "summary_of_the_method": "as §2", "units": {"2 × Clotting time, APTT": "ng/mL"}, "values": [
      {"smiles": "Cl.N=C(N)NCCC[C@@H](C=O)NC(=O)[C@@H]1CCCN1C(=O)[C@@H](Cc1ccccc1)NCC1CCCCC1", "note": "[Example 30, cyclohexyl-CH2 -D-phe-pro-Arg-H.HCl]", "2 × Clotting time, APTT": 860},
      {"smiles": "CN[C@H](CC1CCCCC1)C(=O)N1CCC[C@H]1C(=O)N[C@H](C=O)CCCNC(=N)N.Cl", "note": "[Example 31, Me-D-Cha-Pro-Arg-H.HCl] (H-[dNMeCha]-Pro-Arg-aldehyde)", "2 × Clotting time, APTT": 420},
      {"smiles": "CCOC(=O)N[C@H](Cc1ccccc1)C(=O)N1CCC[C@H]1C(=O)N[C@H](C=O)CCCNC(=N)N.Cl", "note": "[Example 33, EtOCO-D-Phe-Pro-Arg-H.HCl]", "2 × Clotting time, APTT": 390}
    ]},
    {"test_system": "not listed separately", "assay": "Index of bioavailability (plasma TT AUC, p.o. vs i.v.)", "details": "rats, adjusted for dose", "units": {"Index of Bioavailability, % Relative Activity": "%"}, "values": [
      {"smiles": "Cl.N=C(N)NCCC[C@@H](C=O)NC(=O)[C@@H]1CCCN1C(=O)[C@@H](Cc1ccccc1)NCC1CCCCC1", "note": "[Example 30, cyclohexyl-CH2 -D-phe-pro-Arg-H.HCl]", "Index of Bioavailability, % Relative Activity": 1},
      {"smiles": "CCOC(=O)N[C@H](Cc1ccccc1)C(=O)N1CCC[C@H]1C(=O)N[C@H](C=O)CCCNC(=N)N.Cl", "note": "[Example 33, EtOCO-D-Phe-Pro-Arg-H.HCl]", "Index of Bioavailability, % Relative Activity": 14}
    ]},
    {"target": "T3, Human plasmin (Homo sapiens, UniProt P00747)", "T3 construct": "Human plasmin is purchased from Boehringer Mannheim, Indianapolis, Ind; purchased Boehringer Mannheim, Indianapolis, Ind", "T3 sequence (P00747 581-810 limits assumed)": "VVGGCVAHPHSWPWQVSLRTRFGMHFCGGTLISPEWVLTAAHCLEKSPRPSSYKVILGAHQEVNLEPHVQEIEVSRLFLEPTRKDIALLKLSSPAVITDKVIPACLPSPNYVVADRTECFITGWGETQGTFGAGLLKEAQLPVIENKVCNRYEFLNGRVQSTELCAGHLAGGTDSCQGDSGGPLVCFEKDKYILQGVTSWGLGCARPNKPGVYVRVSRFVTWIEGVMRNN", "T3 sequence (P00747 97-580 partner limits assumed)": "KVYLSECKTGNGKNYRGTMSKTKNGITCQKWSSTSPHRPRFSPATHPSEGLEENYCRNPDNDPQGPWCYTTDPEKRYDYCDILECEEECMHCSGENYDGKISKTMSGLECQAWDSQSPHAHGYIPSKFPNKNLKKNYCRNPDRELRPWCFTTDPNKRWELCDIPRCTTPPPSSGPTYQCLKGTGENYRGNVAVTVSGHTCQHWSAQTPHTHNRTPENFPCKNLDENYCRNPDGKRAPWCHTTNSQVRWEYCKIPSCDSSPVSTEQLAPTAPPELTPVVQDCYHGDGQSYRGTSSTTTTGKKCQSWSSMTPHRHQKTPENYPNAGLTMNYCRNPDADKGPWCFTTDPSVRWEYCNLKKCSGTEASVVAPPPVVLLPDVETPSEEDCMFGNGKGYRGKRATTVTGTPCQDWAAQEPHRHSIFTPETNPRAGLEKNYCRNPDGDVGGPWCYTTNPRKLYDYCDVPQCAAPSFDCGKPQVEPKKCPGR", "assay": "Serine protease inhibition, plasmin (chromogenic substrate), Kass", "format": "biochemical", "details": "substrate H-D-Val-Leu-Lys-p-nitroanilide", "summary_of_the_method": "as §1", "units": {"Enzyme Kass, Plasmin": "L/mol × 10^6"}, "values": [
      {"smiles": "Cl.N=C(N)NCCC[C@@H](C=O)NC(=O)[C@@H]1CCCN1C(=O)[C@@H](Cc1ccccc1)NCC1CCCCC1", "note": "[Example 30, cyclohexyl-CH2 -D-phe-pro-Arg-H.HCl]", "Enzyme Kass, Plasmin": 0.49},
      {"smiles": "CN[C@H](CC1CCCCC1)C(=O)N1CCC[C@H]1C(=O)N[C@H](C=O)CCCNC(=N)N.Cl", "note": "[Example 31, Me-D-Cha-Pro-Arg-H.HCl] (H-[dNMeCha]-Pro-Arg-aldehyde)", "Enzyme Kass, Plasmin": 7.7},
      {"smiles": "CCOC(=O)N[C@H](Cc1ccccc1)C(=O)N1CCC[C@H]1C(=O)N[C@H](C=O)CCCNC(=N)N.Cl", "note": "[Example 33, EtOCO-D-Phe-Pro-Arg-H.HCl]", "Enzyme Kass, Plasmin": 16}
    ]},
    {"target": "T4, Bovine trypsin (Bos taurus, UniProt P00760)", "T4 construct": "Bovine trypsin is purchased from Worthington Biochemicals, Freehold, N.J; purchased Worthington Biochemicals, Freehold, N.J", "T4 sequence (P00760 24-246)": "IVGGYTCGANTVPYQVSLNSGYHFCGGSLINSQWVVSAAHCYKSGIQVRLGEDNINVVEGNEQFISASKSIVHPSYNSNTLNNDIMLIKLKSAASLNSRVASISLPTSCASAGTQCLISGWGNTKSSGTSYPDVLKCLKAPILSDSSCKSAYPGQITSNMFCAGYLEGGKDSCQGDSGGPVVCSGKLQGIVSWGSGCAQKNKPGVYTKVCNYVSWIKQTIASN", "assay": "Serine protease inhibition, trypsin (chromogenic substrate), Kass", "format": "biochemical", "details": "substrate N-Benzoyl-Phe-Val-Arg-p-nitroanilide", "summary_of_the_method": "as §1", "units": {"Enzyme Kass, Trypsin": "L/mol × 10^6"}, "values": [
      {"smiles": "Cl.N=C(N)NCCC[C@@H](C=O)NC(=O)[C@@H]1CCCN1C(=O)[C@@H](Cc1ccccc1)NCC1CCCCC1", "note": "[Example 30, cyclohexyl-CH2 -D-phe-pro-Arg-H.HCl]", "Enzyme Kass, Trypsin": 69},
      {"smiles": "CN[C@H](CC1CCCCC1)C(=O)N1CCC[C@H]1C(=O)N[C@H](C=O)CCCNC(=N)N.Cl", "note": "[Example 31, Me-D-Cha-Pro-Arg-H.HCl] (H-[dNMeCha]-Pro-Arg-aldehyde)", "Enzyme Kass, Trypsin": 160},
      {"smiles": "CCOC(=O)N[C@H](Cc1ccccc1)C(=O)N1CCC[C@H]1C(=O)N[C@H](C=O)CCCNC(=N)N.Cl", "note": "[Example 33, EtOCO-D-Phe-Pro-Arg-H.HCl]", "Enzyme Kass, Trypsin": 240}
    ]},
    {"test_system": "Human Plasma", "assay": "Anticoagulation in human plasma, thrombin time (TT)", "format": "biochemical", "details": "concentration required to double the thrombin time", "summary_of_the_method": "as §2", "units": {"2 × Clotting time, TT": "ng/mL"}, "values": [
      {"smiles": "Cl.N=C(N)NCCC[C@@H](C=O)NC(=O)[C@@H]1CCCN1C(=O)[C@@H](Cc1ccccc1)NCC1CCCCC1", "note": "[Example 30, cyclohexyl-CH2 -D-phe-pro-Arg-H.HCl]", "2 × Clotting time, TT": 16},
      {"smiles": "CN[C@H](CC1CCCCC1)C(=O)N1CCC[C@H]1C(=O)N[C@H](C=O)CCCNC(=N)N.Cl", "note": "[Example 31, Me-D-Cha-Pro-Arg-H.HCl] (H-[dNMeCha]-Pro-Arg-aldehyde)", "2 × Clotting time, TT": 18},
      {"smiles": "CCOC(=O)N[C@H](Cc1ccccc1)C(=O)N1CCC[C@H]1C(=O)N[C@H](C=O)CCCNC(=N)N.Cl", "note": "[Example 33, EtOCO-D-Phe-Pro-Arg-H.HCl]", "2 × Clotting time, TT": 22}
    ]},
    {"target": "T5, factor Xa (Homo sapiens, UniProt P00742)", "T5 construct": "Human factors X, Xa, IXa, XIa, and xIIa are purchased from Enzyme Research Laboratories; purchased Enzyme Research Laboratories, South Bend, Ind", "T5 sequence (P00742 235-488 limits assumed)": "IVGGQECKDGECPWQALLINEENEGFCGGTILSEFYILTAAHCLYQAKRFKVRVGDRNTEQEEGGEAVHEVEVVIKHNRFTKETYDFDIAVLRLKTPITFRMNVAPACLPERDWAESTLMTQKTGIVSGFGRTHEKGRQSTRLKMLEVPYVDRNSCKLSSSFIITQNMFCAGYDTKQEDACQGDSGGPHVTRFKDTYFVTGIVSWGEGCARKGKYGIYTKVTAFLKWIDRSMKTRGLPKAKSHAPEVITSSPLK", "T5 sequence (P00742 41-179 partner limits assumed)": "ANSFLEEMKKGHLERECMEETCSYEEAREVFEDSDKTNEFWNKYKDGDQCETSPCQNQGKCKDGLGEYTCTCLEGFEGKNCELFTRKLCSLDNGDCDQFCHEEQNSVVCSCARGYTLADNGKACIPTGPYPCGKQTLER", "assay": "Serine protease inhibition, factor Xa (chromogenic substrate), Kass", "format": "biochemical", "details": "substrate N-Benzoyl-Ile-Glu-Gly-Arg-p-nitroanilide", "summary_of_the_method": "as §1", "units": {"Enzyme Kass, Xa": "L/mol × 10^6"}, "values": [
      {"smiles": "Cl.N=C(N)NCCC[C@@H](C=O)NC(=O)[C@@H]1CCCN1C(=O)[C@@H](Cc1ccccc1)NCC1CCCCC1", "note": "[Example 30, cyclohexyl-CH2 -D-phe-pro-Arg-H.HCl]", "Enzyme Kass, Xa": 0.11},
      {"smiles": "CN[C@H](CC1CCCCC1)C(=O)N1CCC[C@H]1C(=O)N[C@H](C=O)CCCNC(=N)N.Cl", "note": "[Example 31, Me-D-Cha-Pro-Arg-H.HCl] (H-[dNMeCha]-Pro-Arg-aldehyde)", "Enzyme Kass, Xa": 5.6},
      {"smiles": "CCOC(=O)N[C@H](Cc1ccccc1)C(=O)N1CCC[C@H]1C(=O)N[C@H](C=O)CCCNC(=N)N.Cl", "note": "[Example 33, EtOCO-D-Phe-Pro-Arg-H.HCl]", "Enzyme Kass, Xa": 2.3}
    ]}
  ]
}
